Measurements from patent US8653127B2, “Bicyclic pyrazolo-heterocycles” (Cara Therapeutics, Inc., priority 2009, dated 2014).
Where two headings read alike, the source gives them in different places.

What was measured:
[1] = biological target: human CB1 receptor (hCB1) (Homo sapiens, UniProt P21554); assay: cAMP assay, agonist/inverse agonist activity at human CB1 receptor; assay type: cell-based; details: hCB1R, read-out: EC50 at hCB1R (Potency at Human CB1 determined by cAMP Assay)
Protocol: The ability of each of the compounds to act as agonists or inverse agonists at human CB2 and CB 1 receptors (hCB2, hCB 1, respectively) and at the rat CB2 receptor (rCB2) was determined by measuring changes in intracellular cyclic AMP (cAMP) levels as described in U.S. Pat. No. 7,517,874.
TR-FRET was measured using a 330-380 nm excitation filter, 615 nm and 665 nm emission filters, dichroic mirror 380 nm and Z=10 mm. cAMP concentrations in each well were back-calculated from a cAMP standard curve run concurrently during each assay. Each plate contained 16 wells of forskolin stimulated cells and 16 wells of forskolin plus 1 μM CP55,940-treated cells. Concentrations of cAMP were expressed as a percent of the difference of these two groups of wells. Concentration-response data including EC50 (the concentration of compound producing 50% of the maximal response) and intrinsic activity (the percent maximal activation compared to full activation by CP55,940) were determined using a four-parameter non-linear regression algorithm (CambridgeSoft Bioassay).

[2] = biological target: human CB2 receptor (hCB2) (Homo sapiens, UniProt P34972); assay: cAMP assay, agonist/inverse agonist activity at human CB2 receptor; assay type: cell-based
Chain of human CB2 receptor (hCB2) (P34972 whole entry): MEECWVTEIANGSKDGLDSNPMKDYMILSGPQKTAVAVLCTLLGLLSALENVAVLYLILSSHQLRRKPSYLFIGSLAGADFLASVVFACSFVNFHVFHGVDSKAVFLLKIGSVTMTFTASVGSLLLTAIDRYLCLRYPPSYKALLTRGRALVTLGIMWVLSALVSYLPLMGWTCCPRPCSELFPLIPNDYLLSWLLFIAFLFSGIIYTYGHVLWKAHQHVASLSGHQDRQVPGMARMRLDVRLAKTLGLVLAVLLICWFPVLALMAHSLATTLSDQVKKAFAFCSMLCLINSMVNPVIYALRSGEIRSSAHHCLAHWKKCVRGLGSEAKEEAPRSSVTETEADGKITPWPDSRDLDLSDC
Protocol: TR-FRET was measured using a 330-380 nm excitation filter, 615 nm and 665 nm emission filters, dichroic mirror 380 nm and Z=10 mm. cAMP concentrations in each well were back-calculated from a cAMP standard curve run concurrently during each assay. Each plate contained 16 wells of forskolin stimulated cells and 16 wells of forskolin plus 1 μM CP55,940-treated cells. Concentrations of cAMP were expressed as a percent of the difference of these two groups of wells.

rat L5/L6 SNL model = assay: Spinal nerve ligation (SNL) model of neuropathic pain, mechanical allodynia; assay type: in vivo; details: two-way repeated measurement ANOVA, FIG. 1
Protocol: The SNL model (Kim and Chung, 1992, Pain 50(3):355-63) was used to induce chronic neuropathic pain in rats. Rats were anesthetized with isoflurane, the left L5 transverse process was removed, and the L5 and L6 spinal nerves were tightly ligated with 6-0 silk suture. The wound was then closed with internal sutures and external staples. Following at least seven days post SNL, baseline, post-injury and post-treatment values for non-noxious mechanical sensitivity were evaluated using eight Semmes-Weinstein filaments (Stoelting, Wood Dale, Ill., USA) with varying stiffness (0.4, 0.7, 1.2, 2.0, 3.6, 5.5, 8.5, and 15 g) according to the up-down method (Chaplan et al., 1994, J. Neurosci. Meth., 53(1):55-63). Animals were placed on a perforated metallic platform and allowed to acclimate to their surroundings for a minimum of 30 mins before testing.
Rat L5/L6 SNL model (n=6/group; mean±sem). Sensitivity to non-noxious mechanical stimuli was tested before and at various time points following oral administration of compound (36). The mean and standard error of the mean (SEM) were determined for the injured paw in each treatment group. Since this stimulus is normally not considered painful, significant injury-induced increases in responsiveness in this test are interpreted as a measure of mechanical allodynia.

[3] = hCB2R, cAMP assay, read-out: EC50 at hCB2R (Potency at Human CB2 determined by cAMP Assay)

Chain of human CB1 receptor (hCB1) (P21554 whole entry): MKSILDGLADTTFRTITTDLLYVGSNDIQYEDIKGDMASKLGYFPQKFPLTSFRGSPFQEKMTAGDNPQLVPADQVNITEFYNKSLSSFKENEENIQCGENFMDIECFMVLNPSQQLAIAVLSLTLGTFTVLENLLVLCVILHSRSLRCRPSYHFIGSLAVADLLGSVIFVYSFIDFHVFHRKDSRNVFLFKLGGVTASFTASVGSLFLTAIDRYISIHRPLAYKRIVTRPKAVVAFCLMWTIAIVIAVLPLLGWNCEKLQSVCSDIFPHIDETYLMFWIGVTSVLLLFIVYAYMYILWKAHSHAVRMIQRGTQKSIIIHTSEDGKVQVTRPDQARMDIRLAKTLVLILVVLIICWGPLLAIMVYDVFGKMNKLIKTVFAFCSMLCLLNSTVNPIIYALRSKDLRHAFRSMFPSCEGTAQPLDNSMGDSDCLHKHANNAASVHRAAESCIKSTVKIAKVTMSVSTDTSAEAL

SMILES	EC50 [1]	EC50 [2]	other results
Cc1cc(NC(=O)[C@@H](NC(=O)n2nc(-c3ccc(F)c(F)c3)c3c2CCOC3)C(C)(C)C)n[nH]1 [Compound 105, (S)-3-(3,4-difluorophenyl)-N-(3,3-dimethyl-1-(5-methyl-1H-pyrazol-3-ylamino)-1-oxobutan-2-yl)-6,7-dihydropyrano[4,3-c]pyrazole-1(4H)-carboxamide]	< 1000 nM	< 1000 nM	–
CC(C)(C)[C@H](NC(=O)c1nn(-c2cc(Cl)ccc2F)c2c1COCC2)C(=O)NCCO [Compound 119, (S)-1-(5-chloro-2-fluorophenyl)-N-(1-(2-hydroxyethylamino)-3,3-dimethyl-1-oxobutan-2-yl)-1,4,6,7-tetrahydropyrano[4,3-c]pyrazole-3-carboxamide]	< 1000 nM	< 1000 nM	–
CN(C)S(=O)(=O)N1CCN(C(=O)[C@@H](NC(=O)n2nc(-c3ccc(F)c(F)c3)c3c2CCOC3)C(C)(C)C)CC1 [Compound 112, (S)-3-(3,4-difluorophenyl)-N-(1-(4-(N,N-dimethylsulfamoyl)piperazin-1-yl)-3,3-dimethyl-1-oxobutan-2-yl)-6,7-dihydropyrano-[4,3-c]pyrazole-1(4H)-carboxamide]	< 1000 nM	–	EC50 [2, 3]: > 1000 nM
CNC(=O)[C@@H](NC(=O)c1nn(-c2ccc(F)c(F)c2)c2c1CN(C)CCC2)C(C)(C)C [Compound 120, (S)-1-(3,4-difluorophenyl)-N-(3,3-dimethyl-1-(methylamino)-1-oxobutan-2-yl)-5-methyl-1,4,5,6,7,8-hexahydropyrazolo[4,3-c]azepine-3-carboxamide]	< 1000 nM	< 1000 nM	–
CC(C)(C)[C@H](NC(=O)c1nn(-c2ccc(Cl)cc2F)c2c1CCOC2)C(=O)NCCO [Compound 118, (S)-1-(4-chloro-2-fluorophenyl)-N-(1-(2-hydroxyethylamino)-3,3-dimethyl-1-oxobutan-2-yl)-1,4,5,7-tetrahydropyrano[3,4-c]pyrazole-3-carboxamide]	< 1000 nM	< 1000 nM	–
Cc1nnc(CNC(=O)[C@@H](NC(=O)n2nc(-c3ccc(F)c(F)c3)c3c2CCOC3)C(C)(C)C)o1 [Compound 113, (S)-3-(3,4-difluorophenyl)-N-(3,3-dimethyl-1-((5-methyl-1,3,4-oxadiazol-2-yl)methylamino)-1-oxobutan-2-yl)-6,7-dihydropyrano[4,3-c]pyrazole-1(4H)-carboxamide]	< 1000 nM	< 1000 nM	–
CC(C)(C)[C@H](NC(=O)n1nc(-c2ccc(F)c(F)c2)c2c1CCOC2)C(=O)N1CCC[C@H]1CO [Compound 109, 3-(3,4-difluorophenyl)-N-((S)-1-((S)-2-(hydroxymethyl)pyrrolidin-1-yl)-3,3-dimethyl-1-oxobutan-2-yl)-6,7-dihydropyrano[4,3-c]pyrazole-1(4H)-carboxamide]	< 1000 nM	< 1000 nM	–
CC(C)(C)[C@H](NC(=O)n1nc(-c2ccc(F)c(F)c2)c2c1CCOC2)C(=O)N1CCNC(=O)C1 [Compound 111, (S)-3-(3,4-difluorophenyl)-N-(3,3-dimethyl-1-oxo-1-(3-oxopiperazin-1-yl)butan-2-yl)-6,7-dihydropyrano[4,3-c]pyrazole-1(4H)-carboxamide]	< 1000 nM	< 1000 nM	–
CC(C)(C)[C@H](NC(=O)n1nc(-c2ccc(F)c(F)c2)c2c1CCOC2)C(=O)NCCC#N [Compound 104, (S)-N-(1-(2-cyanoethylamino)-3,3-dimethyl-1-oxobutan-2-yl)-3-(3,4-difluorophenyl)-6,7-dihydropyrano[4,3-c]pyrazole-1(4H)-carboxamide]	< 1000 nM	< 1000 nM	–
Cc1cnc(CNC(=O)[C@@H](NC(=O)n2nc(-c3ccc(F)c(F)c3)c3c2CCOC3)C(C)(C)C)cn1 [Compound 106, (S)-3-(3,4-difluorophenyl)-N-(3,3-dimethyl-1-((5-methylpyrazin-2-yl)methylamino)-1-oxobutan-2-yl)-6,7-dihydropyrano-[4,3-c]pyrazole-1(4H)-carboxamide]	< 1000 nM	–	EC50 [2, 3]: < 1000 nM
Cc1nnc(CNC(=O)[C@@H](NC(=O)c2nn(-c3cc(Cl)ccc3F)c3c2COCC3)C(C)(C)C)o1 [Compound 123]	< 1000 nM	–	hCBR2 activity ([2]; cAMP assay): no detectable hCBR2 activity
CC(C)(C)[C@H](NC(=O)n1nc(-c2ccc(F)c(F)c2)c2c1CCOC2)C(=O)N1CCS(=O)(=O)CC1 [Compound 110, (S)-3-(3,4-difluorophenyl)-N-(3,3-dimethyl-1-oxo-1-thiomorpholinodioxide-butan-2-yl)-6,7-dihydropyrano[4,3-c]pyrazole-1(4H)-carboxamide]	< 1000 nM	–	EC50 [2, 3]: > 1000 nM
CC(C)(C)[C@H](NC(=O)c1nn(-c2ccc(Cl)cc2F)c2c1COCC2)C(=O)NCCO [Compound 117, (S)-1-(4-chloro-2-fluorophenyl)-N-(1-(2-hydroxyethylamino)-3,3-dimethyl-1-oxobutan-2-yl)-1,4,6,7-tetrahydropyrano[4,3-c]pyrazole-3-carboxamide]	< 1000 nM	< 1000 nM	–
CC(C)(C)C(NC(=O)c1nn(-c2cc(Cl)ccc2F)c2c1COCC2)C(=O)N1CCC[C@H]1CO (stereo partly drawn) [Compound 122]	< 1000 nM	< 1000 nM	–
CC(C)(C)[C@H](NC(=O)c1nn(-c2cc(Cl)ccc2F)c2c1COCC2)C(=O)N1CCNC(=O)C1 [Compound 121, (S)-1-(5-chloro-2-fluorophenyl)-N-(3,3-dimethyl-1-oxo-1-(3-oxopiperazin-1-yl)butan-2-yl)-1,4,6,7-tetrahydropyrano[4,3-c]pyrazole-3-carboxamide]	< 1000 nM	–	hCBR2 activity ([2]; cAMP assay): no detectable hCBR2 activity
CC(C)(C)[C@H](NC(=O)n1nc(-c2ccc(F)c(F)c2)c2c1CCOC2)C(=O)N1CCN(c2nccs2)CC1 [Compound 108, (S)-3-(3,4-difluorophenyl)-N-(3,3-dimethyl-1-oxo-1-(4-(thiazol-2-yl)piperazin-1-yl)butan-2-yl)-6,7-dihydropyrano[4,3-c]pyrazole-1(4H)-carboxamide]	< 1000 nM	< 1000 nM	–
CNC(=O)[C@@H](NC(=O)n1nc(-c2cc(C(F)(F)F)ccc2F)c2c1CCN(C)C2)C(C)(C)C [Compound 59, (S)-N-(3,3-dimethyl-1-(methylamino)-1-oxobutan-2-yl)-3-(2-fluoro-5-(trifluoromethyl)phenyl)-5-methyl-4,5,6,7-tetrahydro-1H-pyrazolo[4,3-c]pyridine-1-carboxamide]	< 1000 nM	< 1000 nM	–
CC(C)(C)[C@H](NC(=O)n1nc(-c2ccc(F)c(F)c2)c2c1CCOC2)C(=O)N1CCN(c2ncccn2)CC1 [Compound 107, (S)-3-(3,4-difluorophenyl)-N-(3,3-dimethyl-1-oxo-1-(4-(pyrimidin-2-yl)piperazin-1-yl)butan-2-yl)-6,7-dihydropyrano[4,3-c]pyrazole-1(4H)-carboxamide]	< 1000 nM	–	EC50 [2, 3]: < 1000 nM
CC(C)(C)[C@H](NC(=O)n1nc(-c2ccc(F)c(F)c2)c2c1CCOC2)C(=O)NCCO [Compound 36, (S)-N-(1-(2-hydroxyethylamino)-3,3-dimethyl-1-oxobutan-2-yl)-3-(3,4-difluorophenyl)-6,7-dihydropyrano[4,3-c]pyrazole-1(4H)-carboxamide]	–	–	sensitivity to non-noxious mechanical stimuli, significance vs. vehicle-controls (rat L5/L6 SNL model; 3 mg/kg oral): significant to p<0.05 vs. vehicle-controls; sensitivity to non-noxious mechanical stimuli, significance vs. vehicle-controls (rat L5/L6 SNL model; 10 mg/kg oral): significant to p<0.001 vs. vehicle-controls; sensitivity to non-noxious mechanical stimuli, significance vs. vehicle-controls (rat L5/L6 SNL model; 30 mg/kg oral): significant to p<0.001 vs. vehicle-controls
